Laboratory results from patent US11739101B2, “Bifunctional degraders of hematopoietic progenitor kinase and therapeutic uses thereof” (Nurix Therapeutics, Inc., priority 2020, dated 2023).

Target: T1, HPK1 (Homo sapiens, UniProt Q92918)
T1 construct: A HiBiT tag was introduced by CRISPR on the N terminus of HPK1 in Jurkat cells; host or cells: Jurkat (ATCC TIB-152), monoclonal CRISPR HiBiT knock-in line
Assay: HPK1 Cellular HiBiT Degradation Assay
Format: cell-based
Details: HiBiT-tagged HPK1 Jurkat cells, 24 hours, 10 uM to 0.1 nM; Dmax = 100 minus lowest % HPK1 remaining vs DMSO vehicle
How it was run: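 Jurkat cells with CRISPR N-terminal HiBiT-tagged HPK1 were exposed to an 11-point 3.16-fold dilution series, 10 uM to 0.1 nM final, for 24 hours at 37° C./5% CO2. HPK1 was read by HiBiT lytic luminescence against DMSO as 100% and parental cells as background. Dmax is 100 minus the lowest % remaining from a four-parameter fit, with a parallel CellTiter-Glo viability check.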

T1 sequence (Q92918 whole entry): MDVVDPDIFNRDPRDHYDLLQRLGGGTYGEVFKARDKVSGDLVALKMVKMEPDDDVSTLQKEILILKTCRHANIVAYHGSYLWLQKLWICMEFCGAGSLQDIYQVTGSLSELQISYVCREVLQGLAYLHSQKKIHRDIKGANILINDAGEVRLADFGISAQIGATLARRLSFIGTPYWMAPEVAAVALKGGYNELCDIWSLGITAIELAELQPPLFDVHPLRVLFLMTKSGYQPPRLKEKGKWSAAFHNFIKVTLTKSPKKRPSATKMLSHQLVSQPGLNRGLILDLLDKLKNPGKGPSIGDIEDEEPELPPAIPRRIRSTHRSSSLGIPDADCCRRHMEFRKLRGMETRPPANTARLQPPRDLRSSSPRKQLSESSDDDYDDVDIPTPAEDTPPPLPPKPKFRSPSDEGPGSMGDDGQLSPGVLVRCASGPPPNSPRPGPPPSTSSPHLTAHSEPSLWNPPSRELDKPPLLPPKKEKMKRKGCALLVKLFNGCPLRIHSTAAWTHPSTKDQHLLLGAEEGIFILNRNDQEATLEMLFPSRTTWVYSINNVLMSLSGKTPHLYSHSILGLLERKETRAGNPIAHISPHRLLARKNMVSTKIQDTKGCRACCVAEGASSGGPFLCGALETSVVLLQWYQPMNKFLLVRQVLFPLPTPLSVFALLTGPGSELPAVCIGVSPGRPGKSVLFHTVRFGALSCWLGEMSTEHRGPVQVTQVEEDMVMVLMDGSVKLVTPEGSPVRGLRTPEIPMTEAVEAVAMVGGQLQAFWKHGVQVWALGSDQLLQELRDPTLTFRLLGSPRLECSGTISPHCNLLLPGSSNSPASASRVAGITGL

| Compound | Dmax [%] |
| --- | --- |
| Cc1cc(F)c(Nc2nc(-c3ccc4c(c3)N([C@H]3C[C@@H](N5CCCCC5)C3)C(=O)C43CCN(C(=O)[C@@H]4CCN(C(=O)[C@H]5CC[C@H](Nc6ccc7c(c6)C(=O)N(C6CCC(=O)NC6=O)C7=O)CC5)C4)CC3)cc3ncn(C(C)C)c23)cc1C(=O)NC(C)C (stereo partly drawn) [Example 81, 5-((6-(1′-((3R)-1-((1R,4R)-4-((2-(2,6-dioxopiperidin-3-yl)-1,3-dioxoisoindolin-5-yl)amino)cyclohexane-1-carbonyl)pyrrolidine-3-carbonyl)-2-oxo-1-((1s,3s)-3-(piperidin-1-yl)cyclobutyl)spiro[indoline-3,4′-piperidin]-6-yl)-3-isopropyl-3H-imidazo[4,5-c]pyridin-4-yl)amino)-4-fluoro-N-isopropyl-2-methylbenzamide] | 45 to 65 |
| Cc1cc(F)c(Nc2nc(-c3ccc4c(c3)N([C@H]3C[C@@H](N5CCCCC5)C3)C(=O)C43CCN(C(=O)CC4CCCN(CC5CCN(c6cccc7c6C(=O)N(C6CCC(=O)NC6=O)C7=O)C5)C4)CC3)cc3ncn(C(C)C)c23)cc1C(=O)NC(C)C (stereo partly drawn) [Example 31, 5-{[6-(1′-{2-[(3S)-1-{[1-{2-[2,6-dioxopiperidin-3-yl]-1,3-dioxo-2,3-dihydro-1H-isoindol-4-yl}pyrrolidin-3-yl]methyl}piperidin-3-yl]acetyl}-2-oxo-1-[(1s,3s)-3-(piperidin-1-yl)cyclobutyl]-1,2-dihydrospiro[indole-3,4′-piperidin]-6-yl)-3-(propan-2-yl)-3H-imidazo[4,5-c]pyridin-4-yl]amino}-4-fluoro-2-methyl-N-(propan-2-yl)benzamide] | > 65 |
| Cc1cc(F)c(Nc2nc(-c3ccc4c(c3)N([C@H]3C[C@@H](N5CCCCC5)C3)C(=O)C43CCN(C(=O)C4CN(C(=O)C5CCN(c6ccc7c(c6)C(=O)N(C6CCC(=O)NC6=O)C7=O)CC5)C4)CC3)cc3ncn(C(C)C)c23)cc1C(=O)NC(C)C (stereo partly drawn) [Example 39, 5-[(6-{1′-[1-(1-{2-[2,6-dioxopiperidin-3-yl]-1,3-dioxo-2,3-dihydro-1H-isoindol-5-yl}piperidine-4-carbonyl)azetidine-3-carbonyl]-2-oxo-1-[(1s,3s)-3-(piperidin-1-yl)cyclobutyl]-1,2-dihydrospiro[indole-3,4′-piperidin]-6-yl}-3-(propan-2-yl)-3H-imidazo[4,5-c]pyridin-4-yl)amino]-4-fluoro-2-methyl-N-(propan-2-yl)benzamide] | < 45 |
| Cc1cc(F)c(Nc2nc(-c3ccc4c(c3)N([C@H]3C[C@@H](N5CCCCC5)C3)C(=O)C43CCN(C(=O)C4CCN(CC5CCN(c6ccc7c(c6)C(=O)N(C6CCC(=O)NC6=O)C7=O)CC5)CC4)CC3)cc3ncn(C(C)C)c23)cc1C(=O)NC(C)C (stereo partly drawn) [Example 45, 5-{[6-(1′-{1-[(1-{2-[2,6-dioxopiperidin-3-yl]-1,3-dioxo-2,3-dihydro-1H-isoindol-5-yl}piperidin-4-yl)methyl]piperidine-4-carbonyl}-2-oxo-1-[(1s,3s)-3-(piperidin-1-yl)cyclobutyl]-1,2-dihydrospiro[indole-3,4′-piperidin]-6-yl)-3-(propan-2-yl)-3H-imidazo[4,5-c]pyridin-4-yl]amino}-4-fluoro-2-methyl-N-(propan-2-yl)benzamide] | > 65 |
| Cc1cc(F)c(Nc2nc(-c3ccc4c(c3)N(C3CC(N5CCCCC5)C3)C(=O)C43CCN(C(=O)CN4CC5(CCN(c6ccc7c(c6)C(=O)N(C6CCC(=O)NC6=O)C7=O)CC5)C4)CC3)cc3ncn(C(C)C)c23)cc1C(=O)NC(C)C (stereo not drawn) [Example 28, 5-[(6-{1′-[2-(7-{2-[2,6-dioxopiperidin-3-yl]-1,3-dioxo-2,3-dihydro-1H-isoindol-5-yl}-2,7-diazaspiro[3.5]nonan-2-yl)acetyl]-2-oxo-1-[(1s,3s)-3-(piperidin-1-yl)cyclobutyl]-1,2-dihydrospiro[indole-3,4′-piperidin]-6-yl}-3-(propan-2-yl)-3H-imidazo[4,5-c]pyridin-4-yl)amino]-4-fluoro-2-methyl-N-(propan-2-yl)benzamide] | < 45 |
| Cc1cc(F)c(Nc2nc(-c3ccc4c(c3)N([C@H]3C[C@@H](N5CCCCC5)C3)C(=O)C43CCN(C(=O)c4ccc(S(=O)(=O)N5CCN(c6ccc7c(c6)C(=O)N(C6CCC(=O)NC6=O)C7=O)CC5)cc4)CC3)cc3ncn(C(C)C)c23)cc1C(=O)NC(C)C (stereo partly drawn) [Example 58, 5-[(6-{1′-[4-({4-[2-(2,6-dioxopiperidin-3-yl)-1,3-dioxo-2,3-dihydro-1H-isoindol-5-yl]piperazin-1-yl}sulfonyl)benzoyl]-2-oxo-1-[(1s,3s)-3-(piperidin-1-yl)cyclobutyl]-1,2-dihydrospiro[indole-3,4′-piperidin]-6-yl}-3-(propan-2-yl)-3H-imidazo[4,5-c]pyridin-4-yl)amino]-4-fluoro-2-methyl-N-(propan-2-yl)benzamide] | < 45 |
| Cc1cc(F)c(Nc2nc(-c3ccc4c(c3)N([C@H]3C[C@@H](N5CCCCC5)C3)C(=O)C43CCN(C(=O)c4ccc(C(=O)N5CCN(c6cccc7c6C(=O)N(C6CCC(=O)NC6=O)C7=O)CC5)cc4)CC3)cc3ncn(C(C)C)c23)cc1C(=O)NC(C)C (stereo partly drawn) [Example 95, 5-({6-[1′-(4-{4-[2-(2,6-dioxopiperidin-3-yl)-1,3-dioxoisoindol-4-yl]piperazine-1-carbonyl}benzoyl)-2-oxo-1-[(1s,3s)-3-(piperidin-1-yl)cyclobutyl]spiro[indole-3,4′-piperidin]-6-yl]-3-isopropylimidazo[4,5-c]pyridin-4-yl}amino)-4-fluoro-N-isopropyl-2-methylbenzamide] | 45 to 65 |
| Cc1cc(F)c(Nc2nc(-c3ccc4c(c3)N([C@H]3C[C@@H](N5CCCCC5)C3)C(=O)C43CCN(C(=O)CCCCCCCOc4cc(-c5scnc5C)ccc4CNC(=O)[C@@H]4C[C@@H](O)CN4C(=O)[C@@H](NC(=O)C4(F)CC4)C(C)(C)C)CC3)cc3ncn(C(C)C)c23)cc1C(=O)NC(C)C [Example 13, (2S,4R)—N-(2-((8-(6-(4-((2-fluoro-5-(isopropylcarbamoyl)-4-methylphenyl)amino)-3-isopropyl-3H-imidazo[4,5-c]pyridin-6-yl)-2-oxo-1-((1s,3s)-3-(piperidin-1-yl)cyclobutyl)spiro[indoline-3,4′-piperidin]-1′-yl)-8-oxooctyl)oxy)-4-(4-methylthiazol-5-yl)benzyl)-1-((S)-2-(1-fluorocyclopropane-1-carboxamido)-3,3-dimethylbutanoyl)-4-hydroxypyrrolidine-2-carboxamide] | < 45 |
| Cc1cc(F)c(Nc2nc(-c3ccc4c(c3)N([C@H]3C[C@@H](N5CCCCC5)C3)C(=O)C43CCN(C(=O)c4ccc(C(=O)N5CCN(c6ccc7c(c6)C(=O)N(C6CCC(=O)NC6=O)C7=O)CC5)cc4Cl)CC3)cc3ncn(C(C)C)c23)cc1C(=O)NC(C)C (stereo partly drawn) [Example 71, 5-[(6-{1′-[2-chloro-4-(4-{2-[2,6-dioxopiperidin-3-yl]-1,3-dioxo-2,3-dihydro-1H-isoindol-5-yl}piperazine-1-carbonyl)benzoyl]-2-oxo-1-[(1s,3s)-3-(piperidin-1-yl)cyclobutyl]-1,2-dihydrospiro[indole-3,4′-piperidin]-6-yl}-3-(propan-2-yl)-3H-imidazo[4,5-c]pyridin-4-yl)amino]-4-fluoro-2-methyl-N-(propan-2-yl)benzamide] | > 65 |
| Cc1cc(F)c(Nc2nc(-c3ccc4c(c3)N([C@H]3C[C@@H](N5CCCCC5)C3)C(=O)C43CCN(C(=O)c4ccc(C(=O)N5CCC(Cc6cccc7c6C(=O)N(C6CCC(=O)NC6=O)C7=O)CC5)cc4)CC3)cc3ncn(C(C)C)c23)cc1C(=O)NC(C)C (stereo partly drawn) [Example 77, 5-{[6-(1′-{4-[4-({2-[2,6-dioxopiperidin-3-yl]-1,3-dioxo-2,3-dihydro-1H-isoindol-4-yl}methyl)piperidine-1-carbonyl]benzoyl}-2-oxo-1-[(1s,3s)-3-(piperidin-1-yl)cyclobutyl]-1,2-dihydrospiro[indole-3,4′-piperidin]-6-yl)-3-(propan-2-yl)-3H-imidazo[4,5-c]pyridin-4-yl]amino}-4-fluoro-2-methyl-N-(propan-2-yl)benzamide] | 45 to 65 |
| Cc1cc(F)c(Nc2nc(-c3ccc4c(c3)N([C@H]3C[C@@H](N5CCCCC5)C3)C(=O)C43CCN(C(=O)C4CN(C(=O)CC5CCN(c6cccc7c6C(=O)N(C6CCC(=O)NC6=O)C7=O)CC5)C4)CC3)cc3ncn(C(C)C)c23)cc1C(=O)NC(C)C (stereo partly drawn) [Example 34, 5-{[6-(1′-{1-[2-(1-{2-[2,6-dioxopiperidin-3-yl]-1,3-dioxo-2,3-dihydro-1H-isoindol-4-yl}piperidin-4-yl)acetyl]azetidine-3-carbonyl}-2-oxo-1-[(1s,3s)-3-(piperidin-1-yl)cyclobutyl]-1,2-dihydrospiro[indole-3,4′-piperidin]-6-yl)-3-(propan-2-yl)-3H-imidazo[4,5-c]pyridin-4-yl]amino}-4-fluoro-2-methyl-N-(propan-2-yl)benzamide] | < 45 |
| Cc1cc(F)c(Nc2nc(-c3ccc4c(c3)N([C@H]3C[C@@H](N5CCCCC5)C3)C(=O)C43CCN(C(=O)C4CCN(CC5CCN(c6cccc7c6C(=O)N(C6CCC(=O)NC6=O)C7=O)CC5)C4)CC3)cc3ncn(C(C)C)c23)cc1C(=O)NC(C)C (stereo partly drawn) [Example 38, 5-[(6-{1′-[1-[(1-{2-[2,6-dioxopiperidin-3-yl]-1,3-dioxo-2,3-dihydro-1H-isoindol-4-yl}piperidin-4-yl)methyl]pyrrolidine-3-carbonyl]-2-oxo-1-[(1s,3s)-3-(piperidin-1-yl)cyclobutyl]-1,2-dihydrospiro[indole-3,4′-piperidin]-6-yl}-3-(propan-2-yl)-3H-imidazo[4,5-c]pyridin-4-yl)amino]-4-fluoro-2-methyl-N-(propan-2-yl)benzamide] | > 65 |
